tested on: male spontaneously hypertensive rats (SHR); assay: Reduction of Blood Pressure (systolic, tail plethysmographic method, oral); type: in vivo, rat (SHR, Wister Kyoto); conditions: 50 mg/kg
Description: Male spontaneously hypertensive rats (SHR, Wister Kyoto) weighing 300 to 350 g were used. Systolic blood pressure was measured indirectly by the tail plethysmographic method in conscious SHR, just prior to, and 1, 2, 4 and 6 hours after oral administration of test drugs. Test drugs, dissolved in deionized water, were administered orally in a volume of 10 ml-solution/kg-rat. Reduction in systolic blood pressure (ΔP, mmHg) was calculated by substracting a systolic blood pressure after administration from that just prior to administration.
Effect of the compounds of the present invention on reduction of blood pressure was examined according to the method as mentioned hereinbefore.

Row | SMILES | ΔPmax (maximally reduced blood pressure)
1 | NCCNS(=O)(=O)c1cccc2c(Cl)nccc12 [Compound (24), N-(2-aminoethyl)-1-chloro-5-isoquinolinesulfonamide] | 70 mmHg
2 | CC(CN)NS(=O)(=O)c1cccc2c(Cl)nccc12 (stereo not drawn) [Compound (26), N-(2-amino-1-methylethyl)-1-chloro-5-isoquinolinesulfonamide] | 53 mmHg
3 | CCCCC(CN)NS(=O)(=O)c1cccc2c(Cl)nccc12 (stereo not drawn) [Compound (27), N-(1-aminomethylpentyl)-1-chloro-5-isoquinolinesulfonamide] | 45 mmHg
4 | CC(C)C(N)CNS(=O)(=O)c1cccc2c(Cl)nccc12 (stereo not drawn) [Compound (28), N-(2-amino-3-methylbutyl)-1-chloro-5-isoquinolinesulfonamide] | 58 mmHg
5 | CCCCN(CCCC)CCCNS(=O)(=O)c1cccc2c(Cl)nccc12 [Compound (29), N-(3-di-n-butylaminopropyl)-1-chloro-5-isoquinolinesulfonamide] | 43 mmHg
6 | CN(CCNS(=O)(=O)c1cccc2c(Cl)nccc12)C1CCCCC1 [Compound (30), N-[2-(N-cyclohexyl-N-methylamino)ethyl]-1-chloro-5-isoquinolinesulfonamide] | 54 mmHg
7 | NCCNS(=O)(=O)c1cccc2c(O)nccc12 [Compound (47), N-(2-aminoethyl)-1-hydroxy-5-isoquinolinesulfonamide] | 43 mmHg

same assay, conditions: 100 mg/kg

Row | SMILES | ΔPmax (maximally reduced blood pressure)
8 | NCCCCNS(=O)(=O)c1cccc2c(Cl)nccc12 [Compound (25), N-(4-aminobuthyl)-1-chloro-5-isoquinolinesulfonamide] | 50 mmHg
9 | N=C(N)NCCCCNS(=O)(=O)c1cccc2c(Cl)nccc12 [Compound (32), N-(4-guanidinobutyl)-1-chloro-5-isoquinolinesulfonamide] | 38 mmHg
10 | CC(CNC(=N)N)NS(=O)(=O)c1cccc2c(Cl)nccc12 (stereo not drawn) [Compound (33), N-(2-guanidino-1-methylethyl)-1-chloro-5-isoquinolinesulfonamide] | 51 mmHg
11 | CCCCC(CNC(=N)N)NS(=O)(=O)c1cccc2c(Cl)nccc12 (stereo not drawn) [Compound (34), N-(1-guanidinomethylpentyl)-1-chloro-5-isoquinolinesulfonamide] | 45 mmHg
12 | CC(C)C(CNS(=O)(=O)c1cccc2c(Cl)nccc12)NC(=N)N (stereo not drawn) [Compound (35), N-(2-guanidino-3-methylbutyl)-1-chloro-5-isoquinolinesulfonamide] | 33 mmHg
13 | CC(CNC(=N)N)CNS(=O)(=O)c1cccc2c(Cl)nccc12 (stereo not drawn) [Compound (36), N-(3-guanidino-2-methylpropyl)-1-chloro-5-isoquinolinesulfonamide] | 48 mmHg
14 | CC(CCNS(=O)(=O)c1cccc2c(Cl)nccc12)CNC(=N)N (stereo not drawn) [Compound (37), N-(4-guanidino-3-methylbutyl)-1-chloro-5-isoquinolinesulfonamide] | 31 mmHg
15 | CC1CN(S(=O)(=O)c2cccc3c(Cl)nccc23)CCN1 (stereo not drawn) [Compound (38), 1-(1-chloro-5-isoquinolinesulfonyl)-3-methylpiperazine] | 45 mmHg
16 | CCC1CN(S(=O)(=O)c2cccc3c(Cl)nccc23)CCN1 (stereo not drawn) [Compound (39), 1-(1-chloro-5-isoquinolinesulfonyl)-3-ethylpiperazine] | 48 mmHg
17 | CC(C)CC1CN(S(=O)(=O)c2cccc3c(Cl)nccc23)CCN1 (stereo not drawn) [Compound (40), 1-(1-chloro-5-isoquinolinesulfonyl)-3-isobutylpiperazine] | 51 mmHg
18 | CC1CN(S(=O)(=O)c2cccc3c(Cl)nccc23)C(C)CN1 (stereo not drawn) [Compound (41), 1-(1-chloro-5-isoquinolinesulfonyl)-2,5-dimethylpiperazine] | 39 mmHg
19 | CN1CCN(S(=O)(=O)c2cccc3c(Cl)nccc23)CC1 [Compound (42), 1-(1-chloro-5-isoquinolinesulfonyl)-4-methylpiperazine] | 56 mmHg
20 | N=C(N)N1CCN(S(=O)(=O)c2cccc3c(Cl)nccc23)CC1 [Compound (43), 1-(1-chloro-5-isoquinolinesulfonyl)-4-amidinopiperazine] | 32 mmHg
21 | N=C(N)N1CCCN(S(=O)(=O)c2cccc3c(Cl)nccc23)CC1 [Compound (44), 1-(1-chloro-5-isoquinolinesulfonyl)-4-amidinohomopiperazine] | 25 mmHg
22 | CC1CN(C(=N)N)CCN1S(=O)(=O)c1cccc2c(Cl)nccc12 (stereo not drawn) [Compound (45), 1-(1-chloro-5-isoquinolinesulfonyl)-4-amidino-2-methylpiperazine] | 37 mmHg
23 | CC1CN(S(=O)(=O)c2cccc3c(Cl)nccc23)C(C)CN1C(=N)N (stereo not drawn) [Compound (46), 1-(1-chloro-5-isoquinolinesulfonyl)-4-amidino-2,5-dimethylpiperazine] | 41 mmHg
24 | NCCNS(=O)(=O)c1cccc2cnccc12 [compound 1, reference compound] | 31 mmHg
25 | CC1CN(S(=O)(=O)c2cccc3cnccc23)CCN1 (stereo not drawn) [compound 3, reference compound] | 10 mmHg

tested on: mesenteric artery of a rabbit; assay: Relaxation of Mesenteric Artery (KCl-contracted spiral strip); parameters: species or system rabbit of Japanese local variety; conditions: Oryctolagus cuniculus; concentration of the hydrochloride attaining 50% of complete relaxation; rabbit mesenteric artery contracted with KCl; read-out: ED50 (the source's name)
Description: A rabbit of Japanese local variety weighing about 3 kg was subjected to blood-letting to death. Then, abdomen of the rabbit was dissected to pick up a mesenteric artery. […] Thus, the shrinkage and relaxation of the artery was ready to be measured as a load on the transducer. To the organ bath, KCl was added in an amount which makes the artery shrink at a half length that in 15 to 20 mM aqueous solution. Then, hydrochlorides of the compounds of the present invention were added to the organ bath to observe relaxation effect on the artery.
Effect of the compounds of the present invention on relaxation of mesenteric artery was examined according to the method as mentioned hereinbefore.

Row | SMILES | EC50
26 | CC1CNCCCN1S(=O)(=O)c1cccc2cnccc12 (stereo not drawn) [Compound (2), 1-(5-isoquinolinesulfonyl)-2-methylhomopiperazine] | 4 µM
27 | CC1CNCCN(S(=O)(=O)c2cccc3cnccc23)C1 (stereo not drawn) [Compound (4), 1-(5-isoquinolinesulfonyl)-6-methylhomopiperazine] | 1.6 µM
28 | CC1NCCCN(S(=O)(=O)c2cccc3cnccc23)C1C (stereo not drawn) [Compound (5), 1-(5-isoquinolinesulfonyl)-2,3-dimethylhomopiperazine] | 8 µM
29 | CC1(C)CN(S(=O)(=O)c2cccc3cnccc23)CCCN1 [Compound (6), 1-(5-isoquinolinesulfonyl)-3,3-dimethylhomopiperazine] | 10 µM
30 | CCC1CN(S(=O)(=O)c2cccc3cnccc23)CCCN1 (stereo not drawn) [Compound (7), 1-(5-isoquinolinesulfonyl)-3-ethylhomopiperazine] | 6 µM
31 | CC(C)CC1CN(S(=O)(=O)c2cccc3cnccc23)CCCN1 (stereo not drawn) [Compound (9), 1-(5-isoquinolinesulfonyl)-3-isobutylhomopiperazine] | 4 µM
32 | O=S(=O)(c1cccc2cnccc12)N1CCCNC(c2ccccc2)C1 (stereo not drawn) [Compound (10), 1-(5-isoquinolinesulfonyl)-3-phenylhomopiperazine] | 12 µM
33 | CCC1CNCCN(S(=O)(=O)c2cccc3cnccc23)C1 (stereo not drawn) [Compound (12), 1-(5-isoquinolinesulfonyl)-6-ethylhomopiperazine] | 3 µM
34 | CCCC1CNCCN(S(=O)(=O)c2cccc3cnccc23)C1 (stereo not drawn) [Compound (13), 1-(5-isoquinolinesulfonyl)-6-propylhomopiperazine] | 11 µM
35 | CCCCCCC1CNCCN(S(=O)(=O)c2cccc3cnccc23)C1 (stereo not drawn) [Compound (16), 1-(5-isoquinolinesulfonyl)-6-hexylhomopiperazine] | 12 µM
36 | CN1CCCN(S(=O)(=O)c2cccc3cnccc23)CC1 [Compound (19), 1-(5-isoquinolinesulfonyl)-4-methylhomopiperazine] | 8 µM
37 | CCN1CCCN(S(=O)(=O)c2cccc3cnccc23)CC1 [Compound (20), 1-(5-isoquinolinesulfonyl)-4-ethylhomopiperazine] | 11 µM
38 | CCCCN1CCCN(S(=O)(=O)c2cccc3cnccc23)CC1 [Compound (22), 1-(5-isoquinolinesulfonyl)-4-butylhomopiperazine] | 13 µM
39 | CCCCCCN1CCCN(S(=O)(=O)c2cccc3cnccc23)CC1 [Compound (23), 1-(5-isoquinolinesulfonyl)-4-hexylhomopiperazine] | 12 µM
40 | NCCNS(=O)(=O)c1cccc2c(Cl)nccc12 [Compound (24), N-(2-aminoethyl)-1-chloro-5-isoquinolinesulfonamide] | 5 µM
41 | NCCCCNS(=O)(=O)c1cccc2c(Cl)nccc12 [Compound (25), N-(4-aminobuthyl)-1-chloro-5-isoquinolinesulfonamide] | 7 µM
42 | CC(CN)NS(=O)(=O)c1cccc2c(Cl)nccc12 (stereo not drawn) [Compound (26), N-(2-amino-1-methylethyl)-1-chloro-5-isoquinolinesulfonamide] | 4 µM
43 | CCCCC(CN)NS(=O)(=O)c1cccc2c(Cl)nccc12 (stereo not drawn) [Compound (27), N-(1-aminomethylpentyl)-1-chloro-5-isoquinolinesulfonamide] | 4 µM
44 | CC(C)C(N)CNS(=O)(=O)c1cccc2c(Cl)nccc12 (stereo not drawn) [Compound (28), N-(2-amino-3-methylbutyl)-1-chloro-5-isoquinolinesulfonamide] | 10 µM
45 | CCCCN(CCCC)CCCNS(=O)(=O)c1cccc2c(Cl)nccc12 [Compound (29), N-(3-di-n-butylaminopropyl)-1-chloro-5-isoquinolinesulfonamide] | 11 µM
46 | CN(CCNS(=O)(=O)c1cccc2c(Cl)nccc12)C1CCCCC1 [Compound (30), N-[2-(N-cyclohexyl-N-methylamino)ethyl]-1-chloro-5-isoquinolinesulfonamide] | 13 µM

Row | SMILES | EC50
47 | N=C(N)NCCCCNS(=O)(=O)c1cccc2c(Cl)nccc12 [Compound (32), N-(4-guanidinobutyl)-1-chloro-5-isoquinolinesulfonamide] | 4 µM
48 | CC(CNC(=N)N)NS(=O)(=O)c1cccc2c(Cl)nccc12 (stereo not drawn) [Compound (33), N-(2-guanidino-1-methylethyl)-1-chloro-5-isoquinolinesulfonamide] | 4 µM
49 | CCCCC(CNC(=N)N)NS(=O)(=O)c1cccc2c(Cl)nccc12 (stereo not drawn) [Compound (34), N-(1-guanidinomethylpentyl)-1-chloro-5-isoquinolinesulfonamide] | 8 µM
50 | CC(C)C(CNS(=O)(=O)c1cccc2c(Cl)nccc12)NC(=N)N (stereo not drawn) [Compound (35), N-(2-guanidino-3-methylbutyl)-1-chloro-5-isoquinolinesulfonamide] | 8 µM
51 | CC(CNC(=N)N)CNS(=O)(=O)c1cccc2c(Cl)nccc12 (stereo not drawn) [Compound (36), N-(3-guanidino-2-methylpropyl)-1-chloro-5-isoquinolinesulfonamide] | 7 µM
52 | CC(CCNS(=O)(=O)c1cccc2c(Cl)nccc12)CNC(=N)N (stereo not drawn) [Compound (37), N-(4-guanidino-3-methylbutyl)-1-chloro-5-isoquinolinesulfonamide] | 11 µM
53 | CC1CN(S(=O)(=O)c2cccc3c(Cl)nccc23)CCN1 (stereo not drawn) [Compound (38), 1-(1-chloro-5-isoquinolinesulfonyl)-3-methylpiperazine] | 17 µM
54 | CCC1CN(S(=O)(=O)c2cccc3c(Cl)nccc23)CCN1 (stereo not drawn) [Compound (39), 1-(1-chloro-5-isoquinolinesulfonyl)-3-ethylpiperazine] | 18 µM
55 | CC(C)CC1CN(S(=O)(=O)c2cccc3c(Cl)nccc23)CCN1 (stereo not drawn) [Compound (40), 1-(1-chloro-5-isoquinolinesulfonyl)-3-isobutylpiperazine] | 13 µM
56 | CC1CN(S(=O)(=O)c2cccc3c(Cl)nccc23)C(C)CN1 (stereo not drawn) [Compound (41), 1-(1-chloro-5-isoquinolinesulfonyl)-2,5-dimethylpiperazine] | 14 µM
57 | CN1CCN(S(=O)(=O)c2cccc3c(Cl)nccc23)CC1 [Compound (42), 1-(1-chloro-5-isoquinolinesulfonyl)-4-methylpiperazine] | 21 µM
58 | N=C(N)N1CCN(S(=O)(=O)c2cccc3c(Cl)nccc23)CC1 [Compound (43), 1-(1-chloro-5-isoquinolinesulfonyl)-4-amidinopiperazine] | 2 µM
59 | N=C(N)N1CCCN(S(=O)(=O)c2cccc3c(Cl)nccc23)CC1 [Compound (44), 1-(1-chloro-5-isoquinolinesulfonyl)-4-amidinohomopiperazine] | 4 µM
60 | CC1CN(C(=N)N)CCN1S(=O)(=O)c1cccc2c(Cl)nccc12 (stereo not drawn) [Compound (45), 1-(1-chloro-5-isoquinolinesulfonyl)-4-amidino-2-methylpiperazine] | 3 µM
61 | CC1CN(S(=O)(=O)c2cccc3c(Cl)nccc23)C(C)CN1C(=N)N (stereo not drawn) [Compound (46), 1-(1-chloro-5-isoquinolinesulfonyl)-4-amidino-2,5-dimethylpiperazine] | 5 µM
62 | NCCNS(=O)(=O)c1cccc2c(O)nccc12 [Compound (47), N-(2-aminoethyl)-1-hydroxy-5-isoquinolinesulfonamide] | 10 µM
63 | CCNCCNS(=O)(=O)c1cccc2c(Cl)nccc12 [Compound (71), N-(2-ethylaminoethyl)-1-chloro-5-isoquinolinesulfonamide] | 12 µM
64 | CCCNCCNS(=O)(=O)c1cccc2c(Cl)nccc12 [Compound (72), N-(2-propylaminoethyl)-1-chloro-5-isoquinolinesulfonamide] | 11 µM
65 | CCCCNCCNS(=O)(=O)c1cccc2c(Cl)nccc12 [Compound (73), N-(2-butylaminoethyl)-1-chloro-5-isoquinolinesulfonamide] | 8 µM
66 | O=S(=O)(c1cccc2c(Cl)nccc12)N1CCNCC1 [Compound (75), 1-(1-chloro-5-isoquinolinesulfonyl)piperazine] | 1 µM

— patent US4678783A, “Substituted isoquinolinesulfonyl compounds” (Asahi Kasei Kogyo Kabushiki Kaisha, priority 1984, dated 1987)
